According to ChEMBL document CHEMBL1240316, “An oxidation-sensing mechanism is used by the global regulator MgrA in Staphylococcus aureus” (2006):
Converted amounts (≈) assume the structure as drawn. The source made the active and inactive calls. No cut-off for these calls is given here.

How the values were obtained:
Staphylococcus aureus [1] = experiment: Antimicrobial activity against Staphylococcus aureus; assay type: functional
Staphylococcus aureus [2] = experiment: Antimicrobial activity against Staphylococcus aureus expressing mgrA C12S mutant gene; assay type: functional
Staphylococcus aureus [3] = experiment: Antimicrobial activity against Staphylococcus aureus assessed as visible growth at 0.25 ug/ml after 24 hrs; assay type: functional, organism-based
Staphylococcus aureus [4] = experiment: Antimicrobial activity against Staphylococcus aureus assessed as visible growth at 0.45 ug/ml after 24 hrs; assay type: functional, organism-based
Staphylococcus aureus [5] = experiment: Antimicrobial activity against Staphylococcus aureus assessed as visible growth at 0.75 ug/ml after 24 hrs; assay type: functional, organism-based
Staphylococcus aureus [6] = experiment: Antimicrobial activity against Staphylococcus aureus assessed as visible growth at 0.75 ug/ml after 24 hrs in presence of 20 uM paraquat; assay type: functional, organism-based
Staphylococcus aureus [7] = experiment: Antimicrobial activity against Staphylococcus aureus expressing mgrA C12S mutant gene assessed as visible growth at 0.25 ug/ml after 24 hrs in presence of 20 uM paraquat; assay type: functional, organism-based
Staphylococcus aureus [8] = experiment: Antimicrobial activity against Staphylococcus aureus expressing mgrA C12S mutant gene assessed as visible growth at 0.45 ug/ml after 24 hrs; assay type: functional, organism-based
Staphylococcus aureus [9] = experiment: Antimicrobial activity against Staphylococcus aureus expressing mgrA C12S mutant gene harboring pYJ335-His-mgrA C12S assessed as highest concentration at which growth was visible after 24 hrs; assay type: functional
Staphylococcus aureus [10] = experiment: Antimicrobial activity against Staphylococcus aureus expressing mgrA C12S mutant gene harboring Pyj335-His-mgrA C12S assessed as highest concentration at which growth was visible after 24 hrs in presence of 20 uM paraquat; assay type: functional
Staphylococcus aureus [11] = experiment: Antimicrobial activity against Staphylococcus aureus expressing mgrA C12S mutant gene harboring plasmid Pyj335 assessed as highest concentration at which growth was visible after 24 hrs; assay type: functional
Staphylococcus aureus [12] = experiment: Antimicrobial activity against Staphylococcus aureus expressing mgrA C12S mutant gene harboring pYJ335 assessed as highest concentration at which growth was visible after 24 hrs in presence of 20 uM paraquat; assay type: functional
Staphylococcus aureus [13] = experiment: Antimicrobial activity against Staphylococcus aureus expressing mgrAC12S mutant gene harboring plasmid Pyj335-His-mgrA C12S assessed as highest concentration at which growth was visible after 24 hrs in presence of 20 uM paraquat; assay type: functional
Staphylococcus aureus [14] = experiment: Antimicrobial activity against Staphylococcus aureus expressing mgrAC12S mutant gene assessed as highest concentration at which growth was visible after 24 hrs; assay type: functional
Staphylococcus aureus [15] = experiment: Antimicrobial activity against Staphylococcus aureus expressing mgrAC12S mutant gene assessed as highest concentration at which growth was visible after 24 hrs in presence of 20 uM paraquat; assay type: functional
Staphylococcus aureus [16] = experiment: Antimicrobial activity against Staphylococcus aureus assessed as highest concentration at which growth was visible after 24 hrs; assay type: functional
Staphylococcus aureus [17] = experiment: Antimicrobial activity against Staphylococcus aureus assessed as highest concentration at which growth was visible after 24 hrs in presence of 20 uM paraquat; assay type: functional
Staphylococcus aureus [18] = experiment: Antimicrobial activity against Staphylococcus aureus expressing mgrA C12S mutant gene harboring Pyj335-His-mgrA assessed as visible growth at 0.20 ug/ml after 24 hrs in presence of 100 uM hydrogen peroxide; assay type: functional, organism-based
Staphylococcus aureus [19] = experiment: Antimicrobial activity against Staphylococcus aureus expressing mgrAC12S mutant gene assessed as visible growth at 0.20 ug/ml after 24 hrs in presence of 100 uM hydrogen peroxide; assay type: functional, organism-based
Staphylococcus aureus [20] = experiment: Antimicrobial activity against Staphylococcus aureus expressing mgrA C12S mutant gene harboring plasmid Pyj335 assessed as visible growth at 0.25 ug/ml after 24 hrs; assay type: functional, organism-based
Staphylococcus aureus [21] = experiment: Antimicrobial activity against Staphylococcus aureus expressing mgrA C12S mutant gene harboring plasmid Pyj335 assessed as visible growth at 0.25 ug/ml after 24 hrs in presence of 20 uM paraquat; assay type: functional, organism-based
Staphylococcus aureus [22] = experiment: Antimicrobial activity against Staphylococcus aureus expressing mgrA C12S mutant gene harboring plasmid Pyj335 assessed as visible growth at 0.35 ug/ml after 24 hrs in presence of 20 uM paraquat; assay type: functional, organism-based
Staphylococcus aureus [23] = experiment: Antimicrobial activity against Staphylococcus aureus expressing mgrA C12S mutant gene harboring plasmid Pyj335 assessed as visible growth at 0.45 ug/ml after 24 hrs; assay type: functional, organism-based
Staphylococcus aureus [24] = experiment: Antimicrobial activity against Staphylococcus aureus expressing mgrAC12S mutant gene harboring plasmid Pyj335 assessed as visible growth at 0.55 ug/ml after 24 hrs; assay type: functional, organism-based
Staphylococcus aureus [25] = experiment: Antimicrobial activity against Staphylococcus aureus expressing mgrA C12S mutant gene harboring Pyj335-His-mgrA assessed as visible growth at 0.25 ug/ml after 24 hrs in presence of 20 uM paraquat; assay type: functional, organism-based
Staphylococcus aureus [26] = experiment: Antimicrobial activity against Staphylococcus aureus expressing mgrA C12S mutant gene harboring Pyj335-His-mgrA assessed as visible growth at 0.35 ug/ml after 24 hrs in presence of 20 uM paraquat; assay type: functional, organism-based
Staphylococcus aureus [27] = experiment: Antimicrobial activity against Staphylococcus aureus expressing mgrA C12S mutant gene harboring Pyj335-His-mgrA assessed as visible growth at 0.75 ug/ml after 24 hrs in presence of 20 uM paraquat; assay type: functional, organism-based
Staphylococcus aureus [28] = experiment: Antimicrobial activity against Staphylococcus aureus assessed as visible growth at 1 ug/ml after 24 hrs in presence of 20 uM paraquat; assay type: functional, organism-based
Staphylococcus aureus [29] = experiment: Antimicrobial activity against Staphylococcus aureus expressing mgrA C12S mutant gene assessed as visible growth at 1 ug/ml after 24 hrs in presence of 20 uM paraquat; assay type: functional, organism-based
Staphylococcus aureus [30] = experiment: Antimicrobial activity against Staphylococcus aureus expressing mgrAC12S mutant gene harboring plasmid Pyj335-His-mgrA C12S assessed as highest concentration at which growth was visible after 24 hrs; assay type: functional
Staphylococcus aureus [31] = experiment: Antimicrobial activity against Staphylococcus aureus expressing mgrA C12S mutant gene assessed as visible growth at 1.1 ug/ml after 24 hrs; assay type: functional, organism-based
Staphylococcus aureus [32] = experiment: Antimicrobial activity against Staphylococcus aureus expressing mgrA C12S mutant gene harboring Pyj335-His-mgrA assessed as visible growth at 1.1 ug/ml after 24 hrs in presence of 25 uM paraquat; assay type: functional, organism-based
Staphylococcus aureus [33] = experiment: Antimicrobial activity against Staphylococcus aureus expressing mgrA C12S mutant gene assessed as visible growth at 1.8 ug/ml after 24 hrs; assay type: functional, organism-based
Staphylococcus aureus [34] = experiment: Antimicrobial activity against Staphylococcus aureus expressing mgrA C12S mutant gene assessed as visible growth at 2.2 ug/ml after 24 hrs in presence of 20 uM paraquat; assay type: functional, organism-based
Staphylococcus aureus [35] = experiment: Antimicrobial activity against Staphylococcus aureus expressing mgrA C12S mutant gene harboring plasmid Pyj335 assessed as visible growth at 0.6 ug/ml after 24 hrs; assay type: functional, organism-based
Staphylococcus aureus [36] = experiment: Antimicrobial activity against Staphylococcus aureus expressing mgrA C12S mutant gene harboring plasmid Pyj335 assessed as visible growth at 1 ug/ml after 24 hrs in presence of 20 uM paraquat; assay type: functional, organism-based
Staphylococcus aureus [37] = experiment: Antimicrobial activity against Staphylococcus aureus expressing mgrA C12S mutant gene harboring Pyj335-His-mgrA assessed as visible growth at 0.6 ug/ml after 24 hrs; assay type: functional, organism-based
Staphylococcus aureus [38] = experiment: Antimicrobial activity against Staphylococcus aureus expressing mgrA C12S mutant gene harboring Pyj335-His-mgrA assessed as visible growth at 1.4 ug/ml after 24 hrs; assay type: functional, organism-based
Staphylococcus aureus [39] = experiment: Antimicrobial activity against Staphylococcus aureus expressing mgrA C12S mutant gene harboring Pyj335-His-mgrA assessed as visible growth at 1.4 ug/ml after 24 hrs in presence of 20 uM paraquat; assay type: functional, organism-based
Staphylococcus aureus [40] = experiment: Antimicrobial activity against Staphylococcus aureus expressing mgrA C12S mutant gene harboring plasmid Pyj335-His-mgrA assessed as visible growth at 1.8 ug/ml after 24 hrs in presence of 20 uM paraquat; assay type: functional, organism-based

## O=C(O)c1cn(C2CC2)c2cc(N3CCNCC3)c(F)cc2c1=O [CIPROFLOXACIN]
Staphylococcus aureus [1]
  MIC: 0.35 µg/mL (≈ 1.06 µM)
Staphylococcus aureus [2]
  MIC: 0.7 µg/mL (≈ 2.11 µM)
Staphylococcus aureus [3]
  Activity: inactive
Staphylococcus aureus [4]
  Activity: Active
Staphylococcus aureus [5]
  Activity: Active
Staphylococcus aureus [6]
  Activity: Active
Staphylococcus aureus [7]
  Activity: inactive
Staphylococcus aureus [8]
  Activity: inactive
Staphylococcus aureus [9]
  Activity: 0.35 µg/mL
Staphylococcus aureus [10]
  Activity: 0.35 µg/mL
Staphylococcus aureus [11]
  Activity: 0.65 µg/mL
Staphylococcus aureus [12]
  Activity: 0.65 µg/mL
Staphylococcus aureus [13]
  Activity: 0.55 µg/mL
Staphylococcus aureus [14]
  Activity: 0.65 µg/mL
Staphylococcus aureus [15]
  Activity: 0.65 µg/mL
Staphylococcus aureus [16]
  Activity: 0.25 µg/mL
Staphylococcus aureus [17]
  Activity: 0.45 µg/mL
Staphylococcus aureus [18]
  Activity: Active
Staphylococcus aureus [19]
  Activity: inactive
Staphylococcus aureus [20]
  Activity: inactive
Staphylococcus aureus [21]
  Activity: inactive
Staphylococcus aureus [22]
  Activity: inactive
Staphylococcus aureus [23]
  Activity: inactive
Staphylococcus aureus [24]
  Activity: inactive
Staphylococcus aureus [25]
  Activity: inactive
Staphylococcus aureus [26]
  Activity: inactive
Staphylococcus aureus [27]
  Activity: Active

## CN[C@H](CC(C)C)C(=O)N[C@H]1C(=O)N[C@@H](CC(N)=O)C(=O)N[C@H]2C(=O)N[C@H]3C(=O)N[C@H](C(=O)N[C@H](C(=O)O)c4cc(O)cc(O)c4-c4cc3ccc4O)[C@H](O)c3ccc(c(Cl)c3)Oc3cc2cc(c3O[C@@H]2O[C@H](CO)[C@@H](O)[C@H](O)[C@H]2O[C@H]2C[C@](C)(N)[C@H](O)[C@H](C)O2)Oc2ccc(cc2Cl)[C@H]1O [VANCOMYCIN]
Staphylococcus aureus [1]
  MIC: 1.2 µg/mL (≈ 0.828 µM)
Staphylococcus aureus [2]
  MIC: 2.4 µg/mL (≈ 1.66 µM)
Staphylococcus aureus [28]
  Activity: inactive
Staphylococcus aureus [29]
  Activity: inactive
Staphylococcus aureus [9]
  Activity: 1.4 µg/mL
Staphylococcus aureus [10]
  Activity: 1.4 µg/mL
Staphylococcus aureus [11]
  Activity: 2.2 µg/mL
Staphylococcus aureus [12]
  Activity: 2.2 µg/mL
Staphylococcus aureus [30]
  Activity: 1 µg/mL
Staphylococcus aureus [13]
  Activity: 1.8 µg/mL
Staphylococcus aureus [14]
  Activity: 2.2 µg/mL
Staphylococcus aureus [15]
  Activity: 2.2 µg/mL
Staphylococcus aureus [16]
  Activity: 1 µg/mL
Staphylococcus aureus [17]
  Activity: 1.4 µg/mL
Staphylococcus aureus [31]
  Activity: inactive
Staphylococcus aureus [32]
  Activity: Active
Staphylococcus aureus [33]
  Activity: inactive
Staphylococcus aureus [34]
  Activity: inactive
Staphylococcus aureus [35]
  Activity: inactive
Staphylococcus aureus [36]
  Activity: inactive
Staphylococcus aureus [37]
  Activity: inactive
Staphylococcus aureus [38]
  Activity: Active
Staphylococcus aureus [39]
  Activity: inactive
Staphylococcus aureus [40]
  Activity: inactive
